Experimental data published in US7838464B2, “Method for yield improvement in glyphosate-resistent legumes” (priority 2002, dated 2010).

Test system: soya variety NIDERA AX 4910
Assay: Field experiments: yield of glyphosate-resistant soya after foliar treatment
Format: in vivo
Protocol: The results shown hereinbelow were obtained in experiments in the, open which were carried out during the […] season in the Argentinian northern pampas. The plots used were arranged randomly relative to one another. Each treatment variant was replicated-four times. The crop plant used was the soya variety NIDERA AX 4910, which is resistant to numerous fungal diseases and to the herbicide glyphosate.
In all 5 experiments, two foliar treatments with glyphosate were carried out 30 or 60 days after planting the soya seeds, using equipment conventionally used under practice conditions. In the experiments 2 and 3, pyraclostrobin was added at “30 days after planting”, while pyraclostrobin was added at “60 days after planting” in the experiments 4 and 5.

| Compound | Yield (experiment 1: glyphosate 360 g a.s./ha at 30 and at 60 days after planting, no pyraclostrobin, open field, 4 replicates) | yield in comparison with the conventional use of glyphosate alone (addition of pyraclostrobin 50 or 100 g a.s./ha to glyphosate at early (30 days) and late (60 days) treatment times) |
| --- | --- | --- |
| O=C(O)CNCP(=O)(O)O [glyphosate, N-(phosphonomethyl)glycine] | 100% | – |
| pyraclostrobin | – | markedly increased the yield |
